The nature of this series: Reference Example 1: bulk powder left in air, residual ratio. Format: physicochemical. As to conditions: 40° C. and 75% RH in the air, 1 month. Here is the method: A bulk powder of Compound A and sodium ascorbate were respectively left to stand for 1 month at 40° C. and 75% RH in the air, and then residual ratios thereof were measured. As a result, the residual ratio of Compound A was 89.7% (W/W), and the residual ratio of sodium ascorbate was 99.0% (W/W). Quantification of Compound A was carried out by a HPLC method under the following conditions. Solvent: acetonitrile Measurement wavelength: 287 nm Column: CHIRALCEL OJ-R 4.6 mm×150 mm (manufactured by Daicel Chemical Industries, Ltd.) Mobile phase: mixed solution of acetonitrile/10 mM aqueous ammonium acetate solution (16:9) Oven temperature: around 25° C. Quantification of sodium ascorbate was carried out by an iodine titration technique (solvent: metaphosphoric acid solution (1→50), indicator: starch test solution).

Consider `COc1cc2c(cc1OC)CN(c1c(C)c(C)c3c(c1C)[C@@H](c1ccc(C)cc1)C(C)(C)O3)C2` [Compound A, (R)-5,6-dimethoxy-2-[2,2,4,6,7-pentamethyl-3-(4-methylphenyl)-2,3-dihydro-1-benzofuran-5-yl]isoindoline], for which the residual ratio is listed as 89.7 % (W/W). Next, `O=C1O[C@H]([C@@H](O)CO)C([O-])=C1O.[Na+]` [sodium ascorbate]: 99.0 % (W/W).

These data come from patent US20090030064A1, “Sugar-coated preparation” (Takeda Pharmaceutical Company Limited, priority 2005, published 2009).
